The text below walks through data of patent US9150505B2, “Prophylactic or therapeutic agent for diabetes or obesity” (AJINOMOTO CO., INC., priority 2010, dated 2015).

As usually defined, the EC50 is the concentration giving half of the maximal effect. Low values mean higher potency in that assay, high ones lower potency in that assay.

One assay relates to NCI-H716 cells. The experiment in a line: Promotion of GLP-1 secretion in NCI-H716 cells. It counts as cell-based, human. Particulars: 2 mM, 30 minutes at 37° C., buffer assumed to be 1.0. The protocol: Human appendix-derived cell line NCI-H716 (ATCC No CCL-251) was cultured in a 10% FBS-containing DMEM/HamF-12 medium at 37° C. in the presence of 5% CO2. NCI-H716 cells were seeded in a poly-D-lysine-coated 96-well plate at 100,000 cells/well and cultured for two days. Prior to sample addition, wells were washed with Hepes buffer (20 mM Hepes, 146 mM NaCl, 5 mM KCl, 1.5 mM CaCl2, 1 mM MgSO4, 5.5 mM D-glucose, 0.2% BSA, pH 7.4). Fifty μl of a sample solution dissolved in the same buffer was added and incubated at 37° C. for 30 minutes. The above-described compounds in Example 6 (Compound 1) (10 mM), Example 48 (Compound 2) (5 mM) and Example 14 (Compound 3) (2 mM) were used as the samples. In addition, a Hepes buffer was used as a control. After collecting the supernatant, the cells were precipitated by centrifugation (5,000×g, 1 min.) to collect the supernatant thereof. GLP-1 level in the supernatant was determined as described below according to a quantitative method for GLP-1 that uses GLP-1 receptor gene expression cells.
According to a routine method (Lopez de Maturana R, Willshaw A, Kuntzsch A, Rudolph R, Donnelly D. J Biol Chem. 2003 Mar. 21; 278 (12):10195-200), human GLP-1 receptor gene (Nucleotide sequence 1) was integrated into pcDNA3.1 to prepare human GLP-1 receptor gene expression plasmid hGLP-1R/pcDNA3.1. Moreover, chimeric gene (Nucleotide sequence 2) of human Gα15 gene and human gustducin gene was integrated into pcDNA3.1 to prepare G protein expression plasmid Gα15-gust/pcDNA3.1. […] After 24 hours of cultivation in a CO2 incubator, changes in the fluorescence intensity were determined starting immediately after sample addition according to the Ca^2+ fluorescence indicator FLIPR Calcium 4 Assay Kit protocol (Molecular Devices) using FlexStation (Molecular Devices). Concentration dependency of human GLP-1 (7-36 Amide; Peptide Institute) with respect to the changes in the fluorescence intensity was determined and used as a standard curve for quantitating the sample. […]

Another assay deals with T1, human CaSR (Homo sapiens, UniProt P41180).
T1 construct: expressed in transfected cells; host or cells: 293E cells (EBNA1-expressing HEK293, ATCC No. CRL-10852), transient transfection of hCaSR/pcDNA3.1
T1 sequence (P41180 20-1078): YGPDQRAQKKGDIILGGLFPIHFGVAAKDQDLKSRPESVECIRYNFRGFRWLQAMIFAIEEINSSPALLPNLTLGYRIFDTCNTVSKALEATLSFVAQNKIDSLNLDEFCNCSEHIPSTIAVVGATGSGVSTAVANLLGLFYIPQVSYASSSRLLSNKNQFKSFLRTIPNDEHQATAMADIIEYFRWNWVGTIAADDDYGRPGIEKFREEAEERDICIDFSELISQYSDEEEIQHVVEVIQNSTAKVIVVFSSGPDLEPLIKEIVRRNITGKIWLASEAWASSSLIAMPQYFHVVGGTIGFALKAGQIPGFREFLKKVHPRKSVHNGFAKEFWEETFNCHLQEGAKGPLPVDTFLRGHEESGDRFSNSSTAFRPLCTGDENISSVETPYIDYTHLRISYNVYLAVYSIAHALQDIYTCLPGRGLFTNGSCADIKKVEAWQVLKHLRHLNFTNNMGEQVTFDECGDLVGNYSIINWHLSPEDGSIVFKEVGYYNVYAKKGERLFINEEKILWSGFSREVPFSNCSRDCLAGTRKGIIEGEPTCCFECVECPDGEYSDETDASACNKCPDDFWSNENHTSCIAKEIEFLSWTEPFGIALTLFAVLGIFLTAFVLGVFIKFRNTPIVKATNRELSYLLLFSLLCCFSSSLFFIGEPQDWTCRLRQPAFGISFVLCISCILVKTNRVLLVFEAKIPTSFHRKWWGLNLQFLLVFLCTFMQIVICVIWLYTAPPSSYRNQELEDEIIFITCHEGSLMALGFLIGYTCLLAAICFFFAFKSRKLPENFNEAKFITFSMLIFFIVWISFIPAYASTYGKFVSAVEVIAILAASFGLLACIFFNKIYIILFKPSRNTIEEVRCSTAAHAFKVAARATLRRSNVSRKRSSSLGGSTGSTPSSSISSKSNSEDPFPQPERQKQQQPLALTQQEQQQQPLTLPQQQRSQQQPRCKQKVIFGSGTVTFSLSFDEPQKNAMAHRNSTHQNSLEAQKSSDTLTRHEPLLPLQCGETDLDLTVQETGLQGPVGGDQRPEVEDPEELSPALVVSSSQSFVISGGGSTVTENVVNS
The experiment in a line: Assessment of CaSR agonistic activity (Ca2+ fluorescence, FLIPR, hCaSR-transfected 293E cells). It counts as cell-based. The following applies: human CaSR-expressing 293E cells, 1.5 mM CaCl2 assay buffer, 3-minute change in fluorescence intensity. The protocol: CaSR gene was prepared according to the method described in Example 1 of WO07/55393. The resulting recombinant plasmid was used to generate human CaSR-expressing plasmid hCaSR/pcDNA3.1.
293E cells (EBNA1-expressing IIEK293 cells, ATCC No. CRL-10852) were cultured in DMEM ([…] Glucose-containing Dulbecco's modified Eagle medium, Nacalai Tesque) containing 10% bovine fetal serum in the presence of 250 μg/ml of G418. The cells were seeded on a 10 cm-diameter petri dish at 1.8×10^6 cells/15 ml, and left to stand in a CO2 incubator (5% CO2, 37° C.) for 24 hours. Thereafter, human CaSR expression plasmid hCaSR/pcDNA3.1 was transfected with transfection reagent Mirus Trans IT 293 (Takara Bio). Following static culture in a CO2 incubator for 24 hours, the cells were harvested with 10% bovine fetal serum-containing DMEM and seeded on a poly-D-lysine coat 384 well plate (Falcon) at 15,000 cells/well. Following static culture in a CO2 incubator for 24 hours, the medium was removed and the resultant was added with 50 μl/well of Ca^2+ fluorescent indicator Calcium 4 Assay Kit (Molecular Devices) dissolved in an assay buffer (146 mM NaCl, 5 mM KCl, 1 mM MgSO4, 1 mg/ml Glucose, 20 mM HEPES (PH 7.2), 1.5 mM CaCl2), and left to stand at 37° C. for an hour and then at room temperature for 30 minutes to allow intake of the indicator. The above-mentioned 384-well plate was transferred to FLIPR (Molecular Devices) and added with 12.5 μl/well of a compound dissolved in a 0.1% BSA-containing assay buffer to measure 3-minute change in the fluorescence intensity.
The difference between maximum and minimum fluorescence intensities before and after compound addition (RFU (Max−Min)) was determined by FLIPR automatic calculation. An activity rate was calculated where RFU (Max−Min) upon addition of a compound at a maximum concentration was defined 100% and RFU (Max−Min) upon addition of DMSO as a substitute for the compound at the same concentration was defined 0%. The rate was subjected to curve fitting using spreadsheet software Xfit to determine EC50 value, i.e., a compound concentration upon 50% activity rate.

Take `Cc1c(Cl)cc(S(=O)(=O)O)cc1NC(=O)NC[C@H](N)C(=O)O` [Example 14, (2S)-2-amino-3-{[(3-chloro-2-methyl-5-sulfophenyl)carbamoyl]amino}propanoic acid]: in the assay on NCI-H716 cells, the “Relative secretion volumes (GLP-1)” value turned out to be 3.54.

On to `CN[C@@H](CNC(=O)Nc1cc(Cl)c(C)c(S(=O)(=O)O)c1)C(=O)O` [Example 79, (2S)-3-{[(3-chloro-4-methyl-5-sulfophenyl)carbamoyl]amino}-2-(methylamino)propanoic acid], for which the EC50 on human CaSR was 313 nM.

The molecule `COc1ccc(NC(=O)NC[C@H](N)C(=O)O)cc1S(=O)(=O)O` [Example 81, (2S)-2-amino-3-{[(4-methoxy-3-sulfophenyl)carbamoyl]amino}propanoic acid] showed an EC50 on human CaSR of 3700 nM.

As to `COc1ccc(S(=O)(=O)O)cc1NC(=O)NC[C@H](N)C(=O)O` [Example 82, (2S)-2-amino-3-{[(2-methoxy-5-sulfophenyl)carbamoyl]amino}propanoic acid], on human CaSR, a half-maximal response (EC50) required 1000 nM.

As for `CC(=O)Nc1cc(S(=O)(=O)O)cc(NC(=O)NC[C@H](N)C(=O)O)c1O` [Example 83, (2S)-2-amino-3-{[(3-acetamide-2-hydroxy-5-sulfophenyl)carbamoyl]amino}propanoic acid], the EC50 on human CaSR amounted to 21100 nM.

As to `N[C@@H](CNC(=O)Nc1cccc(C(=O)O)c1)C(=O)O` [Example 85, 3-({[(2S)-2-amino-2-carboxyethyl]carbamoyl}amino)benzoic acid], the EC50 on human CaSR was 1600 nM.

As for `N[C@@H](CNC(=O)Nc1cc(C(=O)O)ccc1Cl)C(=O)O` [Example 88, 3-({[(2S)-2-amino-2-carboxyethyl]carbamoyl}amino)-4-chlorobenzoic acid], a half-maximal response on human CaSR (EC50) required 2300 nM.

In turn, `Cc1cc(C)c(S(=O)(=O)O)cc1NC(=O)NC[C@H](N)C(=O)O` [Example 89, (2S)-2-amino-3-{[(2,4-dimethyl-5-sulfophenyl)carbamoyl]amino}propano is acid] yielded an EC50 on human CaSR of 1100 nM.

In the case of `N[C@@H](CNC(=O)Nc1cccc(C(=O)O)c1O)C(=O)O` [Example 90, 3-({[(2S)-2-amino-2-carboxyethyl]carbamoyl}amino)-2-hydroxybenzoic acid], on human CaSR, the EC50 was 1000 nM.

Consider `N[C@@H](CNC(=O)Nc1cc(C(=O)O)cc([N+](=O)[O-])c1)C(=O)O` [Example 92, 3-({[(2S)-2-amino-2-carboxyethyl]carbamoyl}amino)-5-nitrobenzoic acid], for which the EC50 on human CaSR came out at 1800 nM.

For the molecule `Cc1ccc(C(=O)O)cc1NC(=O)NC[C@H](N)C(=O)O` [Example 93, 3-({[(2S)-2-amino-2-carboxyethyl]carbamoyl}amino)-4-methylbenzoic acid], a half-maximal response on human CaSR (EC50) required 5000 nM.

As for `Cc1ccc(NC(=O)NC[C@H](N)C(=O)O)cc1C(=O)O` [Example 99, 5-({[(2S)-2-amino-2-carboxyethyl]carbamoyl}amino)-2-methylbenzoic acid], the EC50 at human CaSR turned out to be 15000 nM.

As to `COc1c(NC(=O)NC[C@H](N)C(=O)O)cccc1C(=O)O` [Example 100, 3-({[(2S)-2-amino-2-carboxyethyl]carbamoyl}amino)-2-methoxybenzoic acid], at human CaSR, the EC50 amounted to 5800 nM.

Molecule `COc1cc(NC(=O)NC[C@H](N)C(=O)O)cc(C(=O)O)c1` [Example 101, 3-({[(2S)-2-amino-2-carboxyethyl]carbamoyl}amino)-5-methoxybenzoic acid] registered an EC50 on human CaSR of 3600 nM.

For `N[C@@H](CNC(=O)Nc1cc(S(=O)(=O)O)ccc1F)C(=O)O` [Example 104, (2S)-2-amino-3-{[(2-fluoro-5-sulfophenyl)carbamoyl]amino}propanoic acid], at human CaSR, the EC50 was 490 nM.
